Key:
FLT3 D835H = target: T1, FLT3 D835H (Homo sapiens, UniProt P36888, D835H); assay: DiscoverX KINOMEscan competition binding, FLT3 D835H; conditions: no ATP
T1 construct: purchased DiscoverX (KINOMEscan); host or cells: E. coli (T7 phage) or HEK-293
T1 sequence (P36888 27-993 D835H): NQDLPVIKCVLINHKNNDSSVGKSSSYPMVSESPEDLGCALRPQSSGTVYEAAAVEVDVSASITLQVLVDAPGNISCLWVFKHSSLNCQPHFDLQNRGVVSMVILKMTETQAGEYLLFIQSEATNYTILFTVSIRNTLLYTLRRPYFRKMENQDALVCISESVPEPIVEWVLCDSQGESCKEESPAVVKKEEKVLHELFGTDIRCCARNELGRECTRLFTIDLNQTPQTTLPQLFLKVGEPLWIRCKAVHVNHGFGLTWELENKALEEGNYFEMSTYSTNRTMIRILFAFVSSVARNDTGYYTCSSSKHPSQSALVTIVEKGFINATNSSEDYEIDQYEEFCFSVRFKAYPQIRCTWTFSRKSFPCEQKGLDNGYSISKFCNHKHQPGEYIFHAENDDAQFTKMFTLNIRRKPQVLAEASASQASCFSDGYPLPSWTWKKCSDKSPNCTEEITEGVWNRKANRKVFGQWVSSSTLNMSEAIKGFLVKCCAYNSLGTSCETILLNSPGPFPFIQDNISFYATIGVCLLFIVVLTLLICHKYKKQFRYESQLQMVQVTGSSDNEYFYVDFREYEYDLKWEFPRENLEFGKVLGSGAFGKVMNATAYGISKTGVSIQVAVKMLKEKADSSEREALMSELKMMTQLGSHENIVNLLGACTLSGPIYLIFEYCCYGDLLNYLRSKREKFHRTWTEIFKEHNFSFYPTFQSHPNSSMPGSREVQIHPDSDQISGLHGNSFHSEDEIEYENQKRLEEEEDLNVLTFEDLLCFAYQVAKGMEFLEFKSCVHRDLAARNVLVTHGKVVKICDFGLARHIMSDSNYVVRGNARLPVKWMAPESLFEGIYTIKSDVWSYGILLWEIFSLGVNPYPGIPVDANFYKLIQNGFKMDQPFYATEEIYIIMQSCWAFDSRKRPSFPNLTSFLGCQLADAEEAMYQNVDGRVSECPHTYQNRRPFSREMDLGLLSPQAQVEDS
Excerpt: (§1) Kinase binding data were obtained for various exemplary compounds prepared according to Examples 2-15 using the DiscoverX KINOMEscan® active site-directed competition binding site-directed assay protocol described below. […] As a result, the data report thermodynamic interaction affinities (Kd values), rather than IC50 values that are dependent on ATP concentrations. The assay uses a DNA-tagged version of the protein kinase, and an immobilized ligand bound to a solid support. Compounds that directly or indirectly prevent kinase binding to the immobilized ligand reduce the amount of kinase captured on the solid support, which is detected using an ultra-sensitive qPCR method. Affinity constants reported from the assay have been reported to be independent of the immobilized ligand used that is coupled to the solid support (See supplemental information in Fabian, M. A. et. al., (2005) Nat. […] Wodicka, L. […] Biol. 17, 1241-1249.) Kinase-tagged T7 phage strains were prepared in an E. coli host derived from the BL21 strain. E. coli were grown to log-phase and infected with T7 phage and incubated with shaking at 32° C. until lysis. […] Kds were determined using an 11-point 3-fold compound dilution series with three DMSO control points. […] The kinase concentration in the eluates was measured by qPCR. Binding constants (Kds) were calculated with a standard dose-response curve using the Hill equation. […]

FLT3 ITD, D835V = target: T2, FLT3 ITD, D835V (Homo sapiens, UniProt P36888, D835V, form not given); assay: DiscoverX KINOMEscan competition binding, FLT3 ITD, D835V; conditions: no ATP
T2 construct: fused on or other part: DNA tag for qPCR read-out (T7 phage fusion, or DNA-tagged kinase made in HEK-293 cells)
T2 sequence (P36888 1-993 D835V): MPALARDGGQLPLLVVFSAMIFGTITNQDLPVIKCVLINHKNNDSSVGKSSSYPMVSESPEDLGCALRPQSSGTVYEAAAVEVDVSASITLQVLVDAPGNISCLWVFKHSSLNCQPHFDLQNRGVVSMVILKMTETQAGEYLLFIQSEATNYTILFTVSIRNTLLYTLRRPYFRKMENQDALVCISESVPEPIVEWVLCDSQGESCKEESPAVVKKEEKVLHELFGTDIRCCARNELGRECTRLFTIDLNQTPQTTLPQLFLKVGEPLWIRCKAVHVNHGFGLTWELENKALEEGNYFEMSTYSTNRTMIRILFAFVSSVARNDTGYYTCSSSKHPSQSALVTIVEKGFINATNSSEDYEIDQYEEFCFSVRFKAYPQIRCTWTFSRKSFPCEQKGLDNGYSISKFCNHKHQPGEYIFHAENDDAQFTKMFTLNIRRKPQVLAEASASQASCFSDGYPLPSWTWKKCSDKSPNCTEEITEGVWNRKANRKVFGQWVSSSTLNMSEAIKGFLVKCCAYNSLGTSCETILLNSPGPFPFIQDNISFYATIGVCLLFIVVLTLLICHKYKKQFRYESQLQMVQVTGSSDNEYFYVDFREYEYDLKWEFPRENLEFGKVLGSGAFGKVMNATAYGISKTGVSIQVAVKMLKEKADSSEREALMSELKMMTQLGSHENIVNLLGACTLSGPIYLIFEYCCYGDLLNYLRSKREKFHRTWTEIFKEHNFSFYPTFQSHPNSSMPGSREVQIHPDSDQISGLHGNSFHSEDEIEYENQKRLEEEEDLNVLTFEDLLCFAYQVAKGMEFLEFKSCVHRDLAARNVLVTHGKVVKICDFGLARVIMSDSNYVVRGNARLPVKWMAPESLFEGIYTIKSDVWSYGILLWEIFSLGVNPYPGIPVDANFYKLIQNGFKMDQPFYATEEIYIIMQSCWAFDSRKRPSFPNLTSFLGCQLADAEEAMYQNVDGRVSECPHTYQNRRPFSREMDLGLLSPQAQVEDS
Excerpt: as §1

COc1cc2ncc(-c3nc(N[C@H]4CNCC[C@@H]4F)c(F)cc3F)n2nc1C1CCC1 [Compound 15a, 6-(6-cyclobutyl-7-methoxyimidazo[1,2-b]pyridazin-3-yl)-3,5-difluoro-N-((3S,4S)-4-fluoropiperidin-3-yl)pyridin-2-amine]
Kd (FLT3 D835H): < 0.17 nM
Kd (FLT3 ITD, D835V): < 0.17 nM

Source: patent US20250368648A1, “MULTI-CYCLIC IRAK AND FLT3 INHIBITING COMPOUNDS AND USES THEREOF” (CHILDREN'S HOSPITAL MEDICAL CENTER, priority 2022, published 2025)
